Source: ChEMBL document CHEMBL5584354, “Impact of Conjugation of the Reactive Oxygen Species (ROS)-Generating Catalytic Moiety with Membrane-Active Antimicrobial Peptoids: Promoting Multitarget Mechanism and Enhancing Selectivity” (J Med Chem, 2024)
Converted amounts (≈) assume the structure as drawn. The source made the active and inactive calls. The rule behind the calls is not given here. Non-standard residues stand in square brackets, D forms with d. Residues, ends and D or L forms follow the SMILES beside them. Gly(N(CH2)2(3-indolyl)) = O=C(O)CNCCc1c[nH]c2ccccc12; Nspe = C[C@H](NCC(=O)O)c1ccccc1; Nlys = NCCCCNCC(=O)O

Key:
[1] = tested on: Escherichia coli; test: Antibacterial activity against Escherichia coli K1 infected in female ICR mouse model of septic shock assessed as reduction in BUN level in serum at 5 mg/kg, ip pretreated for 1 hr followed by bacteria addition and further treated with 3 doses of compound every 4 hrs relative to control; format: functional; set-up: scale not given: the % may be the effect or the level left; conditions: time 9 hrs
[2] = tested on: HEK293; test: Cytotoxicity against HEK293 cells assessed as reduction in cell viability at 3.1 to 25 uM incubated for 24 hrs by WST-8 assay; format: toxicity, cell-based; conditions: human, hek293, 24 h, dose 3.1-25 µM
[3] = tested on: Escherichia coli; test: Induction of lipid peroxidation in Escherichia coli ATCC 25922 assessed as increase in MDA level at 10 uM incubated for 2 hrs by TBARS assay; format: functional, organism-based
[4] = tested on: HEK-Blue hTLR7; test: Inhibition of TLR4-mediated inflammatory signaling in LPS-stimulated HEK-Blue […] cells assessed as reduction in SEAP activity at 20 uM preincubated for 1 hr followed by LPS stimulation and measured after 16 hrs by ELISA relative to control; format: cell-based; conditions: Homo sapiens, time 17.0 hrs
[5] = Cytotoxicity against mouse RAW264.7 cells assessed as cell viability at 10 uM incubated for 24 hrs by […] relative to control; format: toxicity, cell-based; conditions: read-out: Activity
[6] = tested on: HEK293; test: Cytotoxicity against HEK293 cells assessed as cell killing incubated for 24 hrs by MTS assay; format: toxicity, cell-based; conditions: human, hek293, 24 h
[7] = tested on: Escherichia coli; test: Antibacterial activity against Escherichia coli K1 infected in female ICR mouse model of septic shock assessed as reduction in lung edema at 5 mg/kg, ip pretreated for 1 hr followed by bacteria addition and further treated with 3 doses of compound every 4 hrs by H and E staining based light microscopic analysis; format: functional, organism-based; conditions: time 9.0 hrs
[8] = tested on: Escherichia coli; test: Induction of lipid peroxidation in Escherichia coli ATCC 25922 assessed as increase in green fluorescence at 12.5 uM incubated for 1 hrs by BODIPY 581/591 C11 dye based confocal microscopic analysis; format: functional, organism-based
[9] = Toxicity in female ICR mouse assessed as dilatation of renal vein in kidney at 5 mg/kg, ip administered four doses for 12 hrs and measured 24 hrs post last dose by H and E staining based light microscopic analysis; format: organism-based; conditions: in vivo, 36 h
[10] = tested on: Escherichia coli; test: Antibacterial activity against Escherichia coli K1 infected in female ICR mouse model of septic shock assessed as reduction in infiltrated […] in lung at 5 mg/kg, ip pretreated for 1 hr followed by bacteria addition and further treated with 3 doses of compound every 4 hrs by H and E staining based light microscopic analysis; format: functional, organism-based; conditions: time 9.0 hrs
[11] = tested on: Lipopolysaccharide (LPS); test: Binding affinity to Escherichia coli O111:B4 LPS at 0 to 25 uM BODIPY-TR-cadaverine substitution assay; format: subcellular; conditions: dose 0-25 µM
[12] = tested on: Escherichia coli; test: Induction of lipid peroxidation in Escherichia coli ATCC 25922 at 12.5 uM incubated for 1 hrs by BODIPY 581/591 C11 dye based flow cytometry analysis; format: functional, organism-based
[13] = tested on: Cell membrane; test: Disruption of outer membrane in Escherichia coli ATCC 25922 assessed as increase in absorbance measured every 5 mins for 90 mins by nitrocefin assay; format: cell membranes; conditions: dose 0-25 µM
[14] = tested on: Cell membrane; test: Disruption of inner membrane in Escherichia coli ATCC 25922 assessed as increase in absorbance incubated for 1 hr by ONPG assay; format: cell membranes; conditions: dose 0-25 µM
[15] = tested on: MRC5; test: Cytotoxicity against human MRC5 cells assessed as cell killing incubated for 24 hrs by MTS assay; format: toxicity, cell-based; conditions: mrc5, 24 h
[16] = tested on: HEK-Blue hTLR7; test: Inhibition of TLR4-mediated inflammatory signaling in LPS-stimulated HEK-Blue […] cells assessed as reduction in SEAP activity at 10 uM preincubated for 1 hr followed by LPS stimulation and measured after 16 hrs by ELISA relative to control; format: cell-based; conditions: Homo sapiens, time 17.0 hrs
[17] = tested on: Klebsiella pneumoniae; test: Antibacterial activity against carbapenem-resistant Klebsiella pneumoniae NMS118 harboring extended-spectrum beta-lactamase assessed as inhibition of bacterial growth incubated for 24 hrs by broth dilution method; format: functional
[18] = tested on: Escherichia coli; test: Antibacterial activity against Escherichia coli K1 infected in female ICR mouse model of septic shock assessed as reduction in TNFalpha level in serum at 5 mg/kg, ip pretreated for 1 hr followed by bacteria addition and further treated with 3 doses of compound every 4 hrs by ELISA relative to control; format: functional; set-up: scale not given: the % may be the effect or the level left; conditions: time 9 hrs
[19] = tested on: RAW264.7; test: Inhibition of LPS-induced NF-kappaB pathway in mouse RAW264.7 cells assessed as reduction in NF-kappaB nuclear translocation at 10 uM preincubated for 1 hr followed by LPS addition and measured after 1 hr by immunofluorescence staining based confocal microscopic analysis; format: cell-based; conditions: time 2.0 hrs
[20] = tested on: HaCaT; test: Cytotoxicity against human HaCaT cells assessed as cell killing incubated for 24 hrs by MTS assay; format: toxicity, cell-based
[21] = Acute toxicity in female ICR mouse assessed as animal survival at 5 mg/kg, ip administered four doses for 12 hrs; format: organism-based; conditions: in vivo
[22] = Toxicity in female ICR mouse assessed as effect on AST level in serum at 5 mg/kg, ip administered four doses for 12 hrs and measured 24 hrs post last dose; format: organism-based; conditions: in vivo, 36 h
[23] = tested on: Escherichia coli; test: Antibacterial activity against Escherichia coli K1 infected in female ICR mouse model of septic shock assessed as reduction in bacterial load in kidney at 5 mg/kg, ip pretreated for 1 hr followed by bacteria addition and further treated with 3 doses of compound every 4 hrs; format: functional, organism-based; conditions: time 9.0 hrs
[24] = tested on: Erythrocyte; test: Hemolytic activity in male Sprague-Dawley rat erythrocytes assessed as concentration required for 10% hemolysis incubated for 1 hr by absorbance based method; format: toxicity, cell-based
[25] = Cytotoxicity against mouse RAW264.7 cells assessed as cell viability at 20 uM incubated for 24 hrs by […] relative to control; format: toxicity, cell-based; conditions: read-out: Activity
[26] = tested on: Escherichia coli; test: Antibacterial activity against Escherichia coli K1 infected in female ICR mouse model of septic shock assessed as reduction in IL-1beta level in serum at 5 mg/kg, ip pretreated for 1 hr followed by bacteria addition and further treated with 3 doses of compound every 4 hrs by ELISA relative to control; format: functional; set-up: scale not given: the % may be the effect or the level left; conditions: time 9 hrs
[27] = tested on: Escherichia coli; test: Antibacterial activity against carbapenem-resistant Escherichia coli NMS11035 harboring extended-spectrum beta-lactamase assessed as inhibition of bacterial growth incubated for 24 hrs by broth dilution method; format: functional
[28] = Toxicity in female ICR mouse assessed as effect on ALT level in serum at 5 mg/kg, ip administered four doses for 12 hrs and measured 24 hrs post last dose; format: organism-based; conditions: in vivo, 36 h
[29] = Toxicity in female ICR mouse infected with Escherichia coli K1 assessed as lung injury at 5 mg/kg, ip pretreated for 1 hr followed by bacteria addition and further treated with 3 doses of compound every 4 hrs; format: organism-based; conditions: in vivo, 9 h

C[C@@H](c1ccccc1)N(CC(=O)N(CCCCN)CC(=O)N(CCc1c[nH]c2ccccc12)CC(=O)N(CCc1c[nH]c2ccccc12)CC(N)=O)C(=O)CN(CCCCN)C(=O)CN(CCCCN)C(=O)CN(C(=O)CN(C(=O)CN(CCCCN)C(=O)CN(C(=O)CN(C(=O)CN(CCCCN)C(=O)[C@H](Cc1c[nH]cn1)NC(=O)CNC(=O)CN)[C@@H](C)c1ccccc1)[C@@H](C)c1ccccc1)[C@@H](C)c1ccccc1)[C@@H](C)c1ccccc1 (H-GGH[Nlys][Nspe][Nspe][Nlys][Nspe][Nspe][Nlys][Nlys][Nspe][Nlys][Gly(N(CH2)2(3-indolyl))][Gly(N(CH2)2(3-indolyl))]-NH2)
Activity [1]: 40.3%
Activity [2]: Non-Toxic
Activity [3]: Active
inhibition [4]: 84.3%
viability at 24 h, 10 µM [5]: 94.5%
LC50 [6]: 39.5 µM
Activity [7]: Active
Activity [8]: Active
Activity [9]: Non-Toxic
Activity [10]: Active
Activity [11]: Active
Activity [12]: Active
Activity [13]: Dose-Dependent Effect
Activity [14]: Dose-Dependent Effect
LC50 [15]: 187 µM
inhibition [16]: 49.7%
MIC [17]: > 25 µM
Activity [18]: 46.6%
inhibition [19]: Active
LC50 [20]: 110 µM
Survival [21]: > 96 h
Activity [22]: Non-Toxic
Activity [23]: Active
HC10 [24]: > 100 µM
viability at 24 h, 20 µM [25]: 74.1%
Activity [26]: 48.3%
MIC [27]: 12.5 µM (≈ 26.4 µg/mL)
Activity [28]: Non-Toxic
Activity [29]: Non-Toxic
